This note sets out measurements from patent US20250346584A1, “NOVEL KAPPA OPIOID LIGANDS” (The Scripps Research Institute, priority 2012, published 2025).

In general, IC50 refers to the concentration that gives 50% inhibition.

This test addresses kappa opioid receptor (OPRK1) (Homo sapiens (Human), UniProt P41145). Put plainly: OPRK1 antagonist assay (b-arrestin-2-TEV / b-lactamase reporter cell line, EC80 U-50488 challenge). Particulars: for IC50: read-out: IC50 nM (% inhib if other than 50%), antagonist mode vs EC80 U-50488, NA = not active at concentrations up to 10 μM; for % inhib if other than 50%: % inhibition at the concentration given. In kind it is cell-based.

Chain of kappa opioid receptor (OPRK1) (P41145 whole entry): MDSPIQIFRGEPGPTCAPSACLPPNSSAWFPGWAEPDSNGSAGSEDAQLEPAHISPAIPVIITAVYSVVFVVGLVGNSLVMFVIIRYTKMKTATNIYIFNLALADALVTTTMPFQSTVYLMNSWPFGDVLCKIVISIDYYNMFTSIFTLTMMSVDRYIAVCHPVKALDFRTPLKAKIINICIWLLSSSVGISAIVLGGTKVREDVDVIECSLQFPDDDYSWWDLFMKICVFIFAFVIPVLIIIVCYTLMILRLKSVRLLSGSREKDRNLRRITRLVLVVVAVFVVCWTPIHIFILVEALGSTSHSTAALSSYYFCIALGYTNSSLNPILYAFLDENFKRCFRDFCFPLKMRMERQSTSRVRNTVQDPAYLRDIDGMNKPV

Take `COC(=O)c1cc(Br)cnc1N1CC2C(C1)C2NC1CCCCC1` (stereo not drawn) [C27]: the IC50 stood at 21000 nM. For the compound `COC(=O)c1cc(NC(=O)NC(C)C)cnc1N1CCC(NC2CCCCC2)CC1` [C35], the IC50 was found to be 17000 nM.

In the case of `COC(=O)c1cnc(N2CCC(NC3CCCCC3)CC2)c([N+](=O)[O-])c1` [C36], the IC50 worked out at 17000 nM.

For the compound `COC(=O)c1cc(Br)cnc1N1CCC(NC2CCCCC2)C(OC(C)=O)C1` (stereo not drawn) [C49], the IC50 worked out at 17000 nM. The same measure, in the same setting: with `COC(=O)c1cc(Br)cnc1N1CCC(OC2CCCC2O)CC1` (stereo not drawn) [C51] the figure was above 20000 nM. `CCOC(=O)c1cc(C#N)c(C)nc1N1CCC(NC2CCCCC2)C(CO)C1` (stereo not drawn) [C52]: the IC50 was above 20000 nM.

With `CCOC(=O)c1cc(C#N)c(C)nc1N1CCC(NC2CCCCC2)C(O)C1` (stereo not drawn) [C53], the IC50 amounted to 13000 nM. Still for that read-out and setting: with `COC(=O)c1cc(Br)cnc1N1CCC(NC(=O)C2CCCCC2)C(O)C1` (stereo not drawn) [C54] the figure was above 20000 nM; with `COC(=O)c1cc(Br)cnc1N1CCC(NC(=O)C2CCCCC2)CC1` [C58], above 20000 nM. Still for that read-out and setting: the same measure for `CCOC(=O)/C=C/c1cnc(N2CCC(NC3CCCCC3)CC2)c(C(=O)OC)c1` [C59]: above 20000 nM. Consider `CC(=O)c1cc(C)cnc1N1CC[C@@H](NC2CCCCC2)[C@H](O)C1` [C60], for which the IC50 came to 14000 nM. Still for that read-out and setting: the same measure for `COC1CN(c2ncc(Br)cc2C(C)=O)CCC1NC1CCCCC1` (stereo not drawn) [C61]: 10000 nM; for `COC(=O)c1cc(C2CC2)cnc1N1CCC(NC2CCCCC2)C(O)C1` (stereo not drawn) [C66]: 17000 nM; for `Cc1cnc(N2CC[C@@H](NC3CCCCC3)[C@H](O)C2)c(C#N)c1` [C67]: 37000 nM. The same measure, in the same setting: with `Cc1cnc(N2CCC(NC3CCCCC3)C(CO)C2)c(C#N)c1` (stereo not drawn) [C68] the figure was above 20000 nM; with `COC1CN(c2ncc(C)cc2C=O)CCC1NC1CCCCC1` (stereo not drawn) [C69], 30000 nM; with `COC1CN(c2ncc(C)cc2-c2ncco2)CCC1NC1CCCCC1` (stereo not drawn) [C70], 17000 nM. Still for that read-out and setting: the same measure for `Cc1ccc2nc(N3CCC(Nc4ncccn4)CC3)c(-c3nc(C)no3)cc2c1` [C83]: 47000 nM; for `CCOC(=O)c1noc(-c2cc3cc(C)ccc3nc2N2CCC(NC3CCCCC3)C(CO)C2)n1` (stereo not drawn) [C91]: 17700 nM. Turning to `COC(=O)c1cc(Br)cnc1N1CCC(N[C@@H]2CCCC[C@H]2O)CC1` [compound 1], the IC50 worked out at 231 nM. Take `CCOC(=O)c1c(Cl)cc(C)nc1N1CCC(N[C@@H]2CCCC[C@H]2O)CC1` [compound 2]: the “% inhib if other than 50%” value is recorded as 65% and the IC50 turned out to be 4500 nM. Regarding `COC(=O)c1cc(Br)cnc1N1CCC(NC2CCCC2O)CC1` (stereo not drawn) [compound 3], the IC50 amounted to 287 nM. Turning to `COC(=O)c1cc(Br)cnc1N1CCC(NCCO)CC1` [compound 6], the “% inhib if other than 50%” value is recorded as 80% and the IC50 worked out at 9200 nM.

`COC(=O)c1cc(Br)cnc1N1CCC(NC2CCCCC2)CC1` [compound 7]: the IC50 was found to be 133 nM.

For the compound `CCOC(=O)c1cc(Br)cnc1N1CCC(NC2CCCC[C@@H]2O)CC1` (stereo partly drawn) [compound 8], the IC50 is 579 nM.

For the compound `COC(=O)c1cc(Br)cnc1N1CCC(NC2CCCC(O)C2)CC1` (stereo not drawn) [compound 10], the IC50 came to 652 nM. On the same count and under the same terms, the same measure for `COC(=O)c1cc(Br)cnc1N1CCC(NC2C3CC4CC(C3)CC2C4)CC1` (stereo not drawn) [compound 11]: 2800 nM. Still for that read-out and setting: with `COC(=O)c1cc(Br)cnc1N1CCC(NC2CCC[C@H]2O)CC1` (stereo partly drawn) [compound 12] the figure was 765 nM; with `COC(=O)c1cc(Br)cnc1N1CCC(NC2CCOCC2)CC1` [compound 13], 621 nM. The same measure, in the same setting: with `COC(=O)c1cc(Br)cnc1N1CCC(NC2CCCCC2)C1` (stereo not drawn) [compound 14] the figure was 185 nM.

`COC(=O)c1cc(Br)cnc1N1C2CCC1CC(NC1CCCCC1)C2` (stereo not drawn) [compound 15]: the IC50 amounted to 7700 nM. With `COC(=O)c1cc(Br)cnc1N1CCC(NC2CCC(C)CC2)CC1` (stereo not drawn) [compound 16], the IC50 was 536 nM. Same read-out and setting: with `COC(=O)c1cc(Br)cnc1N1CCC(N[C@H](C)C2CCCCC2)CC1` [compound 17] the figure was 6800 nM; with `COC(=O)c1cc(Br)cnc1N1CCC(N2CCCCC2)CC1` [compound 18], 2100 nM.

Consider `COC(=O)c1cc(Br)cnc1N1CCC(N(C)C2CCCCC2)CC1` [compound 19], for which the IC50 worked out at 2700 nM. As to `COC(=O)c1cc(Br)cnc1N1CCC(NC2CCCCCC2)CC1` [compound 20], the IC50 is 110 nM. On the same count and under the same terms, with `COC(=O)c1cc(Br)cnc1N1CCC(NC2CCCCCCC2)CC1` [compound 21] the figure was 317 nM; with `COC(=O)c1cc(Br)cnc1N1CCC(NC2CC3CCC2(C)C3(C)C)CC1` (stereo not drawn) [compound 22], 10000 nM. The same measure, in the same setting: with `COC(=O)c1cc(Br)cnc1N1CCC(NC2CCCC(C)C2C)CC1` (stereo not drawn) [compound 23] the figure was 854 nM. On the same count and under the same terms, the same measure for `COC(=O)c1cc(Br)cnc1N1CCC(NC2CCCC2)CC1` [compound 24]: 120 nM; for `CCOC(=O)c1cccnc1N1CCC(NC2CCCCC2)C1` (stereo not drawn) [compound 25]: 1200 nM.

In the case of `COC(=O)c1cc(Br)cnc1N1CCC(NC2CCCCC2OC)CC1` (stereo not drawn) [compound 26], the IC50 was determined as 267 nM.

With `COC(=O)c1cc(Br)cnc1N1CCC(N[C@@H]2CCCCC[C@H]2O)CC1` [compound 27], the IC50 amounted to 473 nM. As for `COC(=O)c1cc(Br)cnc1N1CCC(NC2CC3CCC2C3)CC1` (stereo not drawn) [compound 28], the IC50 came to 387 nM.

With `COC(=O)c1cc(Br)cnc1N1CCC(CNC2CCCCC2)CC1` [compound 31], the IC50 worked out at 3500 nM. Still for that read-out and setting: with `COC(=O)c1cc(-c2ccsc2)cnc1N1CCC(NC2CCCCC2)CC1` [compound 32] the figure was 5300 nM. As for `O=C(O)c1cc(Br)cnc1N1CCC(NC2CCCCC2)CC1` [compound 34], the “% inhib if other than 50%” value was 85% and the IC50 was 5200 nM.

Consider `COC(=O)c1cc(I)cnc1N1CCC(NC2CCCCC2)C1` (stereo not drawn) [compound 35], for which the IC50 turned out to be 88 nM. Turning to `COC(=O)c1cc(I)cnc1N1CCC(NC2CCCCC2)CC1` [compound 36], the IC50 came out at 79 nM.

For the compound `COC(=O)c1cc(I)cnc1N1CCC(NC2CCCCC2O)CC1` (stereo not drawn) [compound 37], the IC50 was determined as 142 nM. The same measure, in the same setting: with `CCOC(=O)c1cc(Br)cnc1N1CCC(NC2CCCCC2)CC1` [compound 38] the figure was 128 nM; with `CC(C)OC(=O)c1cc(Br)cnc1N1CCC(NC2CCCCC2)CC1` [compound 39], 398 nM. On the same count and under the same terms, the same measure for `COC(=O)c1cc(Cl)cnc1N1CCC(NC2CCCCC2)CC1` [compound 40]: 159 nM; for `Cc1noc(-c2cc(Br)cnc2N2CCC(NC3CCCCC3)CC2)n1` [compound 41]: 331 nM; for `COC(=O)c1cc(I)cnc1N1CCC(NC2CCCCC2)C(O)C1` (stereo not drawn) [compound 42]: 18 nM.

In the case of `COC(=O)c1cc(Cl)cnc1N1CCC(NC2CCCCC2)C(O)C1` (stereo not drawn) [compound 43], the IC50 was determined as 52 nM. Take `COC(=O)c1cc(Br)cnc1N1CCC(NC2CCCC2)C(O)C1` (stereo not drawn) [compound 44]: the IC50 was found to be 79 nM. With `COC(=O)c1cc(Br)cnc1N1CCC(NC2CCCCC2)C(C)C1` (stereo not drawn) [compound 45], the IC50 was determined as 164 nM. For the compound `COC(=O)c1cc(I)cnc1N1CCC(NC2CCCC2)C(O)C1` (stereo not drawn) [compound 46], the IC50 came out at 25 nM.

For `COC(=O)c1cc(Br)cnc1N1CCC(O)C(NC2CCCCC2)C1` (stereo not drawn) [compound 47], the IC50 turned out to be 2800 nM. Still for that read-out and setting: with `COC(=O)c1cc(Br)cnc1N1CC(O)C(NC2CCCCC2)C1` (stereo not drawn) [compound 48] the figure was 459 nM; with `COC(=O)c1cc(Br)cnc1N1CC2CN(C3CCCCC3)CC2C1` (stereo not drawn) [compound 49], 1300 nM. The same measure, in the same setting: the same measure for `COC(=O)c1cc(Br)cnc1N1CC2CN(C3CCCC3)CC2C1` (stereo not drawn) [compound 50]: 1000 nM; for `COC(=O)c1cc(Br)cnc1N1CCC(N(C)C2CCCCC2)C(O)C1` (stereo not drawn) [compound 51]: 3000 nM. The same measure, in the same setting: the same measure for `COC(=O)c1cc(Br)cnc1N1CCC(NC2CCCCC2)C(F)C1` (stereo not drawn) [compound 52]: 3400 nM; for `COC(=O)c1cccnc1N1CCC(NC2CCCCC2C)C(O)C1` (stereo not drawn) [compound 53]: 5600 nM; for `COC(=O)c1cccnc1N1CCC(NC2CCCCC2OC)C(O)C1` (stereo not drawn) [compound 54]: 559 nM. On to `COC(=O)c1cccnc1N1CCC(NC2CCCCCC2)C(O)C1` (stereo not drawn) [compound 55], for which the IC50 stood at 1800 nM. On the same count and under the same terms, the same measure for `COC(=O)c1cccnc1N1CCC(NC2CCOCC2)C(O)C1` (stereo not drawn) [compound 56]: 7000 nM; for `COC(=O)c1cccnc1N1CCC(NC2CCCCC2)C(O)C1` (stereo not drawn) [compound 57]: 2200 nM. The same measure, in the same setting: with `COC(=O)c1cc(Br)cnc1N1CCC(NC2CCCCC2C)C(O)C1` (stereo not drawn) [compound 58] the figure was 419 nM; with `COC(=O)c1cc(Br)cnc1N1CCC(NC2CCCCC2OC)C(O)C1` (stereo not drawn) [compound 59], 36 nM. On the same count and under the same terms, with `COC(=O)c1cc(Br)cnc1N1CCC(NC2CCCCCC2)C(O)C1` (stereo not drawn) [compound 60] the figure was 68 nM; with `COC(=O)c1cc(Br)cnc1N1CCC(NC2CCOCC2)C(O)C1` (stereo not drawn) [compound 61], 54 nM.

`COC(=O)c1cc(Br)cnc1N1CC(O)C(NC2CCCCC2)C(O)C1` (stereo not drawn) [compound 62]: the IC50 is 2700 nM. Consider `COC(=O)c1cc(Br)cnc1N1CCC(NC2CCCCC2)C(C)(C)C1` (stereo not drawn) [compound 63], for which the IC50 came to 234 nM. As to `COC(=O)c1cc(Br)cnc1N1CCC(NC2CCCCC2)CC1C` (stereo not drawn) [compound 64], the IC50 turned out to be 901 nM. The same measure, in the same setting: the same measure for `COC(=O)c1cc(Br)cnc1N1CCC(NC2CCCCC2CO)CC1` (stereo not drawn) [compound 65]: 2300 nM. Regarding `COC(=O)c1cc(Br)cnc1N1CCCC(NC2CCCCC2)CC1` (stereo not drawn) [compound 66], the IC50 was 1700 nM. Same read-out and setting: the same measure for `COC(=O)c1cc(Br)cnc1N1CC(NC2CCCCC2)C1` [compound 67]: 1400 nM; for `COC(=O)c1cc(Br)cnc1N1CCC(NC2CCCCC2)C(CO)C1` (stereo not drawn) [compound 68]: 40 nM; for `CCOC(=O)c1cc(Br)cnc1N1CCC(NC2CCCCC2)C(CO)C1` (stereo not drawn) [compound 69]: 53 nM. Consider `COC(=O)c1cc(Cl)cnc1N1CCC(NC2CCCCC2)C(CO)C1` (stereo not drawn) [compound 70], for which the IC50 amounted to 110 nM.

Consider `CCOC(=O)c1cc(Cl)cnc1N1CCC(NC2CCCCC2)C(CO)C1` (stereo not drawn) [compound 71], for which the IC50 came to 93 nM.
